Measured values from patent publication US10668040B2, “Treatment of urea cycle disorders in neonates and infants” (Horizon Therapeutics, LLC, priority 2017, dated 2020).

Legend:
Format in all cases: in vivo, human
pediatric UCD patients = assay: Pooled ammonia analyses from short term studies
Protocol: Pooled ammonia analyses from short term studies were also conducted.

UCD patients [1] = assay: HPN-100-009 (Example 2): growth and development, BMI and BSA Z-scores; details: Age 2 Months to <2 Years
Protocol: Assessment of Growth and Development: Baseline and Change from Baseline in Body Mass Index (BMI) Z-Score and Body Surface Area (BSA) Z-Score Up to Month 9.
End point description. To assess any effect of study drug treatment on growth, Z-scores were calculated to express the deviation from a reference population for BMI and BSA. The BMI Z-scores are based on the World Health Organization's Child Growth Standards charts. The BSA Z-Scores are based on weight-for-length charts. Negative Z-scores indicate lower than typical for age and gender while positive scores indicate higher than typical for age and gender. […] End point timeframe: Baseline, Day 7, Month 2, Month 3, Month 4, Month 5, Month 6, Month 9.

[2] = HPN-100-009 (Example 2): urinary PAGN concentrations on first full day of dosing
Protocol: Assessment of Urinary PAGN Concentrations on the First Full Day of RAVICTI® Dosing.
End point description. Urinary PAGN concentration was measured through urine collection. PK Evaluable Population: all subjects from the safety population with individual concentration-time profiles that allow computation of meaningful PK parameter values. End point timeframe: Hour 0 and between 0.5 and 1 hour, 1.5 and 2.5 hours, 4 and 6 hours, 7.5 and 8.5 hours, and between 12 and 24 hours after the first dose of the day on Day 1 for stable subjects and on Day 2 for subjects in HAC.

UCD patients [3] = assay: Example 3: BMI and BSA Z-scores up to Month 24
Protocol: Baseline and Change from Baseline in Body Mass Index (BMI) Z-Score Up to Month 24
To assess any effect of study drug treatment on growth, Z-scores were calculated to express the deviation from a reference population for BMI. The Z-scores are based on the World Health Organization's Child Growth Standards charts. Negative Z-scores indicate lower than typical for age and gender while positive scores indicate higher than typical for age and gender. BMI measurements were taken on month 1, month 2, month 3, month 4, month 5, month 6, month 9, month 12, month 15, month 18, and month 24.
Baseline and Change from Baseline in Body Surface Area (BSA) Z-Score Up to Month 24
To assess any effect of study drug treatment on growth, Z-scores were calculated to express the deviation from a reference population for BSA. The Z-scores are based on weight-for-length charts. Negative Z-scores indicate lower than typical for age and gender while positive scores indicate higher than typical for age and gender. BMI measurements were taken on month 1, month 2, month 3, month 4, month 5, month 6, month 9, month 12, month 15, month 18, and month 24.

[4] = Age 2 months to <2 years, Month 1
[5] = Age 2 months to <2 years, Month 2
[6] = Age 2 months to <2 years, Month 3
[7] = Age 2 months to <2 years, Month 4
[8] = Age 2 months to <2 years, Month 5
[9] = Age 2 months to <2 years, Month 6
[10] = Age 2 months to <2 years, Month 9
[11] = Age 2 months to <2 years, Month 12
[12] = Age 2 months to <2 years, Month 15
[13] = Age 2 months to <2 years, Month 18
[14] = Age 2 months to <2 years, Month 24

SMILES: O=C(CCCc1ccccc1)OCC(COC(=O)CCCc1ccccc1)OC(=O)CCCc1ccccc1 [RAVICTI, benzenebutanoic acid, 1′,1″-(1,2,3-propanetriyl) ester]
- abnormal ammonia values (pediatric UCD patients): 15%
- BMI Z-Score baseline (UCD patients [1]): 0.795
- BMI Z-score, Change from Baseline at Day 7 (UCD patients [1]): -0.211
- BMI Z-score, Change from Baseline at Month 2 (UCD patients [1]): 0.0021
- BMI Z-score, Change from Baseline at Month 3 (UCD patients [1]): 0.213
- BMI Z-score, Change from Baseline at Month 4 (UCD patients [1]): 0.47
- BMI Z-score, Change from Baseline at Month 5 (UCD patients [1]): 0.164
- BMI Z-score, Change from Baseline at Month 6 (UCD patients [1]): 0.469
- BSA Z-Score baseline (UCD patients [1]): 0.686
- BSA Z-score, Change from Baseline at Day 7 (UCD patients [1]): -0.185
- BSA Z-score, Change from Baseline at Month 2 (UCD patients [1]): -0.0437
- BSA Z-score, Change from Baseline at Month 3 (UCD patients [1]): 0.119
- BSA Z-score, Change from Baseline at Month 4 (UCD patients [1]): 0.381
- BSA Z-score, Change from Baseline at Month 5 (UCD patients [1]): 0.198
- BSA Z-score, Change from Baseline at Month 6 (UCD patients [1]): 0.398
- Urinary PAGN concentration ([2]; Age 2 Months to <2 Years, Hour 0.5 to 1): 4140.2 (±4398.8) μg/mL
- Urinary PAGN concentration ([2]; Age 2 Months to <2 Years, Hour 1.5 to 2.5): 3145.2 (±5044.5) μg/mL
- Urinary PAGN concentration ([2]; Age 2 Months to <2 Years, Hour 4 to 6): 5201.6 (±4546.6) μg/mL
- Urinary PAGN concentration ([2]; Age 2 Months to <2 Years, Hour 7.5 to 8.5): 4290 (±3147.2) μg/mL
- Urinary PAGN concentration ([2]; Age 2 Months to <2 Years, Hour 12 to 24): 7561.1 (±6955.7) μg/mL
- Urinary PAGN concentration ([2]; Age 2 months to <2 years, Hour 0): 3478.3 (±1775.4) μg/mL
- BMI Z-Score baseline (UCD patients [3]; Age 0 to <2 Months): −0.0544 (±1.268);
- BSA Z-Score baseline (UCD patients [3]; Age 0 to <2 Months): −0.1980 (±2.118);
- BMI Z-Score change from baseline (UCD patients [3]; Age 0 to <2 months, Month 1): −0.2158 (±1.36);
- BSA Z-Score change from baseline (UCD patients [3]; Age 0 to <2 months, Month 1): 0.2336 (±1.956);
- BMI Z-Score change from baseline (UCD patients [3]; Age 0 to <2 months, Month 2): −0.2598 (±1.195);
- BSA Z-Score change from baseline (UCD patients [3]; Age 0 to <2 months, Month 2): 0.2006 (±1.721);
- BMI Z-Score change from baseline (UCD patients [3]; Age 0 to <2 months, Month 3): −0.1617 (±1.026);
- BSA Z-Score change from baseline (UCD patients [3]; Age 0 to <2 months, Month 3): 0.2684 (±1.375);
- BMI Z-Score change from baseline (UCD patients [3]; Age 0 to <2 months, Month 4): −0.0264 (±1.682);
- BSA Z-Score change from baseline (UCD patients [3]; Age 0 to <2 months, Month 4): 0.2372 (±2.308);
- BMI Z-Score change from baseline (UCD patients [3]; Age 0 to <2 months, Month 5): 0.0828 (±1.142);
- BSA Z-Score change from baseline (UCD patients [3]; Age 0 to <2 months, Month 5): 0.1810 (±1.7);
- BMI Z-Score change from baseline (UCD patients [3]; Age 0 to <2 months, Month 6): 0.0136 (±1.721);
- BSA Z-Score change from baseline (UCD patients [3]; Age 0 to <2 months, Month 6): 0.2902 (±2.06);
- BMI Z-Score change from baseline (UCD patients [3]; Age 0 to <2 months, Month 9): 0.4614 (±1.253);
- BSA Z-Score change from baseline (UCD patients [3]; Age 0 to <2 months, Month 9): 0.1679 (±1.324);
- BMI Z-Score change from baseline (UCD patients [3]; Age 0 to <2 months, Month 12): 0.6646 (±0.9533);
- BSA Z-Score change from baseline (UCD patients [3]; Age 0 to <2 months, Month 12): 0.1308 (±0.5037);
- BMI Z-Score change from baseline (UCD patients [3]; Age 0 to <2 months, Month 15): 0.6830 (±0.557);
- BSA Z-Score change from baseline (UCD patients [3]; Age 0 to <2 months, Month 15): 0.1595 (±0.7583);
- BMI Z-Score change from baseline (UCD patients [3]; Age 0 to <2 months, Month 18): 0.3308 (±0.2757);
- BSA Z-Score change from baseline (UCD patients [3]; Age 0 to <2 months, Month 18): 0.1050 (±0.7352);
- BMI Z-Score change from baseline (UCD patients [3]; Age 0 to <2 months, Month 24): 0.7743 (±0.6496);
- BSA Z-Score change from baseline (UCD patients [3]; Age 0 to <2 months, Month 24): 0.7341 (±1.356);
- BMI Z-Score baseline (UCD patients [3]; Age 2 Months to <2 Years): 0.8107 (±2.17);
- BSA Z-Score baseline (UCD patients [3]; Age 2 Months to <2 Years): 0.7143 (±2.149);
- BMI Z-Score change from baseline (UCD patients [3]; [4]): −0.2385 (±0.7783);
- BSA Z-Score change from baseline (UCD patients [3]; [4]): −0.2105 (±0.7413);
- BMI Z-Score change from baseline (UCD patients [3]; [5]): −0.0249 (±0.7486);
- BSA Z-Score change from baseline (UCD patients [3]; [5]): −0.0704 (±0.7039);
- BMI Z-Score change from baseline (UCD patients [3]; [6]): 0.1815 (±0.8606);
- BSA Z-Score change from baseline (UCD patients [3]; [6]): 0.1065 (±0.7016);
- BMI Z-Score change from baseline (UCD patients [3]; [7]): 0.4434 (±0.9485);
- BSA Z-Score change from baseline (UCD patients [3]; [7]): 0.3365 (±0.7767);
- BMI Z-Score change from baseline (UCD patients [3]; [8]): 0.1484 (±0.7629);
- BSA Z-Score change from baseline (UCD patients [3]; [8]): 0.1043 (±0.5675);
- BMI Z-Score change from baseline (UCD patients [3]; [9]): 0.2497 (±0.8092);
- BSA Z-Score change from baseline (UCD patients [3]; [9]): 0.1842 (±0.622);
- BMI Z-Score change from baseline (UCD patients [3]; [10]): 0.6407 (±0.9869);
- BSA Z-Score change from baseline (UCD patients [3]; [10]): 0.4875 (±0.8614);
- BMI Z-Score change from baseline (UCD patients [3]; [11]): 0.4164 (±0.8067);
- BSA Z-Score change from baseline (UCD patients [3]; [11]): 0.2944 (±0.7513);
- BMI Z-Score change from baseline (UCD patients [3]; [12]): −0.2997 (±0.1696);
- BSA Z-Score change from baseline (UCD patients [3]; [12]): −0.3661 (±0.00932);
- BMI Z-Score change from baseline (UCD patients [3]; [13]): −0.2038 (±00000);
- BSA Z-Score change from baseline (UCD patients [3]; [13]): −0.2214 (±00000);
- BMI Z-Score change from baseline (UCD patients [3]; [14]): 0.5581 (±1.24);
- BSA Z-Score change from baseline (UCD patients [3]; [14]): 0.4310 (±1.131);
